In ChEMBL document CHEMBL4431337, “Synthesis and bioactivities of novel pyrazole oxime derivatives containing a 1,2,3-thiadiazole moiety” (Bioorg Med Chem Lett, 2016):

Key:
Plutella xylostella [1] = assay: Insecticidal activity against Plutella xylostella assessed as mortality at 200 ug/ml pre-incubated with cabbage leaves for 2 to 3 secs and measured 48 hrs post dose by leaf disc assay; assay type: functional; conditions: foliar
Plutella xylostella [2] = assay: Insecticidal activity against Plutella xylostella assessed as mortality at 100 ug/ml pre-incubated with cabbage leaves for 2 to 3 secs and measured 48 hrs post dose by leaf disc assay; assay type: functional; conditions: foliar
Aphis craccivora [3] = assay: Insecticidal activity against Aphis craccivora assessed as mortality at 200 ug/ml pre-incubated with horsebean shoot with aphids for 2 secs and measured 48 hrs post dose by foliar application method; assay type: functional
Aphis craccivora [4] = assay: Insecticidal activity against Aphis craccivora assessed as mortality at 100 ug/ml pre-incubated with horsebean shoot with aphids for 2 secs and measured 48 hrs post dose by foliar application method; assay type: functional
Aphis craccivora [5] = assay: Insecticidal activity against Aphis craccivora assessed as mortality at 50 ug/ml pre-incubated with horsebean shoot with aphids for 2 secs and measured 48 hrs post dose by foliar application method; assay type: functional
Tetranychus cinnabarinus [6] = assay: Acaricidal activity against Tetranychus cinnabarinus assessed as mortality at 200 ug/ml pre-incubated with mite-infested Sieva bean plants for 3 secs and measured 48 hrs post dose; assay type: functional
Tetranychus cinnabarinus [7] = assay: Acaricidal activity against Tetranychus cinnabarinus assessed as mortality at 100 ug/ml pre-incubated with mite-infested Sieva bean plants for 3 secs and measured 48 hrs post dose; assay type: functional
Tetranychus cinnabarinus [8] = assay: Acaricidal activity against Tetranychus cinnabarinus assessed as mortality at 50 ug/ml pre-incubated with mite-infested Sieva bean plants for 3 secs and measured 48 hrs post dose; assay type: functional
PANC-1 = assay: Cytotoxicity against human PANC1 cells assessed as inhibition of cell growth after 48 hrs by MTT assay; assay type: functional, cell-based; conditions: PANC-1, 48 h
Huh-7 = assay: Cytotoxicity against human HuH7 cells assessed as inhibition of cell growth after 48 hrs by MTT assay; assay type: functional, cell-based; conditions: Huh-7, 48 h
HCT-116 = assay: Cytotoxicity against human HCT116 cells assessed as inhibition of cell growth after 48 hrs by MTT assay; assay type: functional, cell-based; conditions: HCT-116, 48 h
SGC-7901 = assay: Cytotoxicity against human SGC7901 cells assessed as inhibition of cell growth after 48 hrs by MTT assay; assay type: functional, cell-based; conditions: SGC-7901, 48 h
Plutella xylostella [9] = assay: Insecticidal activity against Plutella xylostella assessed as mortality at 50 ug/ml pre-incubated with cabbage leaves for 2 to 3 secs and measured 48 hrs post dose by leaf disc assay; assay type: functional; conditions: foliar

| Structure (SMILES) | mortality at 200 µg/mL (Plutella xylostella [1]) [%] | mortality at 100 µg/mL (Plutella xylostella [2]) [%] | mortality at 200 µg/mL (Aphis craccivora [3]) [%] | mortality at 100 µg/mL (Aphis craccivora [4]) [%] | mortality at 50 µg/mL (Aphis craccivora [5]) [%] | mortality at 200 µg/mL (Tetranychus cinnabarinus [6]) [%] | mortality at 100 µg/mL (Tetranychus cinnabarinus [7]) [%] | mortality at 50 µg/mL (Tetranychus cinnabarinus [8]) [%] | IC50 (PANC-1) [µM] | IC50 (Huh-7) [µM] | IC50 (HCT-116) [µM] | IC50 (SGC-7901) [µM] | mortality at 50 µg/mL (Plutella xylostella [9]) [%] |
| --- | --- | --- | --- | --- | --- | --- | --- | --- | --- | --- | --- | --- | --- |
| Cc1nnsc1CO/N=C/c1c(C)nn(C)c1Oc1cccc(F)c1 | 71 | 0 | 98 | 80 | 52 | 80 | 50 | 0 | > 50 | > 50 | > 50 | > 50 |  |
| Cc1nnsc1CO/N=C/c1c(C)nn(C)c1Cl | 100 | 0 | 100 | 85 | 61 | 0 |  |  | 26.6 | > 50 | > 50 | > 50 |  |
| Cc1nnsc1CO/N=C/c1c(C)nn(C)c1Oc1ccccc1OC(F)(F)F | 66 | 0 | 22 |  |  | 0 |  |  | > 50 | > 50 | > 50 | > 50 |  |
| Cc1nnsc1CO/N=C/c1c(C)nn(C)c1Oc1ccccc1Cl | 100 | 0 | 15 |  |  | 0 |  |  | > 50 | > 50 | 42.5 | > 50 |  |
| Cc1nnsc1CO/N=C/c1c(C)nn(C)c1Oc1ccc(Br)cc1 | 100 | 80 | 20 |  |  | 0 |  |  | 12.8 | 11.8 | 7.19 | 15.2 | 43 |
| CCCc1nnsc1CO/N=C/c1c(C)nn(C)c1Oc1ccccc1C | 0 |  | 0 |  |  | 0 |  |  | > 50 | > 50 | 15.7 | 16.3 |  |
| CCc1nnsc1CO/N=C/c1c(C)nn(C)c1Oc1ccc(OC(F)(F)F)cc1 | 0 |  | 0 |  |  | 0 |  |  | > 50 | > 50 | 12.5 | 13.6 |  |
| CCCc1nnsc1CO/N=C/c1c(C)nn(C)c1Cl | 0 |  | 0 |  |  | 0 |  |  | > 50 | > 50 | > 50 | > 50 |  |
| CCc1nnsc1CO/N=C/c1c(C)nn(C)c1Oc1ccccc1Cl | 0 |  | 0 |  |  | 0 |  |  | > 50 | > 50 | 17.6 | 15.8 |  |
| Cc1nnsc1CO/N=C/c1c(C)nn(C)c1Oc1cccc(F)c1F | 100 | 0 | 19 |  |  | 0 |  |  | 12.2 | 10.2 | 6.56 | 25.7 |  |
| CCCc1nnsc1CO/N=C/c1c(C)nn(C)c1Oc1ccccc1Cl | 0 |  | 0 |  |  | 0 |  |  | > 50 | > 50 | 16.4 | 17.6 |  |
| Cc1nnsc1CO/N=C/c1c(C)nn(C)c1Oc1ccc(OC(F)(F)F)cc1 | 50 | 0 | 100 | 85 | 59 | 80 |  |  | > 50 | > 50 | 12.8 | 11.5 |  |
| Cc1cccc(Oc2c(/C=N/OCc3snnc3C)c(C)nn2C)c1 | 84 | 0 | 90 | 70 | 38 | 0 |  |  | > 50 | > 50 | 14.1 | 12.8 |  |
| CCc1nnsc1CO/N=C/c1c(C)nn(C)c1Cl | 0 |  | 0 |  |  | 0 |  |  | > 50 | > 50 | > 50 | > 50 |  |
| Cc1nnsc1CO/N=C/c1c(C)nn(C)c1Oc1ccc(C(C)(C)C)cc1 | 100 | 0 | 95 | 80 | 50 | 0 |  |  | > 50 | > 50 | 33.5 | > 50 |  |
| Cc1nnsc1CO/N=C/c1c(C)nn(C)c1Oc1cccc(C(F)(F)F)c1 | 45 |  | 62 | 55 | 31 | 0 |  |  | > 50 | > 50 | 10.3 | 12.4 |  |
| CCc1nnsc1CO/N=C/c1c(C)nn(C)c1Oc1ccc(C)cc1 | 0 |  | 0 |  |  | 0 |  |  | > 50 | > 50 | > 50 | 19.8 |  |
| Cc1nnsc1CO/N=C/c1c(C)nn(C)c1Oc1ccc(I)cc1 | 64 | 62 | 95 | 70 | 41 | 90 | 60 | 0 | > 50 | > 50 | 43.8 | > 50 | 60 |
| CCCc1nnsc1CO/N=C/c1c(C)nn(C)c1Oc1ccc(F)cc1 | 0 |  | 0 |  |  | 0 |  |  | > 50 | > 50 | 7.06 | 8.64 |  |
| CCCc1nnsc1CO/N=C/c1c(C)nn(C)c1Oc1ccc(Cl)cc1 | 0 |  | 0 |  |  | 0 |  |  | > 50 | > 50 | 19.2 | 18.6 |  |
| Cc1ccc(Oc2c(/C=N/OCc3snnc3C)c(C)nn2C)cc1 | 100 | 0 | 100 | 90 | 58 | 0 |  |  | > 50 | > 50 | 13.8 | 12.8 |  |
| Cc1nnsc1CO/N=C/c1c(C)nn(C)c1Oc1cc(F)cc(F)c1 | 100 | 0 | 90 | 75 | 45 | 0 |  |  | > 50 | > 50 | 8.12 | 9.41 |  |
| Cc1nnsc1CO/N=C/c1c(C)nn(C)c1Oc1ccc(F)cc1 | 100 | 0 | 99 | 90 | 60 | 0 |  |  | > 50 | > 50 | 30.2 | > 50 |  |
| Cc1nn(C)c(Oc2ccccc2)c1/C=N/OCc1ccc(C(=O)OC(C)(C)C)cc1 [FENPYROXYMATE] |  |  |  |  |  | 100 | 100 | 100 |  |  |  |  |  |
| O=c1[nH]cc(F)c(=O)[nH]1 [FLUOROURACIL] |  |  |  |  |  |  |  |  |  |  | 29.5 | 56.1 |  |
| O=[N+]([O-])/N=C1\NCCN1Cc1ccc(Cl)nc1 [IMIDACLOPRID] |  |  | 100 | 100 | 100 |  |  |  |  |  |  |  |  |
| FC(F)(F)c1ccc(OCCCOc2c(Cl)cc(OCC=C(Cl)Cl)cc2Cl)nc1 [PYRIDALYL] | 100 | 100 |  |  |  |  |  |  |  |  |  |  | 100 |
| CNC(=O)c1cc(Oc2ccc(NC(=O)Nc3ccc(Cl)c(C(F)(F)F)c3)cc2)ccn1 [SORAFENIB] |  |  |  |  |  |  |  |  | 11.5 |  |  |  |  |
